The source of these data is patent US11802107B2, “Compounds and methods of use” (Signum Biosciences, Inc., priority 2017, dated 2023).

Structures are written as SMILES.

In assay [1] the test system is IL-8. In words: TPA-induced IL-8 on NHEKs. Type of assay: cell-based. Particulars: Homo sapiens; NHEK, TPA 5 ng/mL, 24 hours, ELISA. As for the experimental part: (§1) Normal human epidermal keratinocytes (NHEKs) from neonatal donors were obtained from Thermo-Fisher (Cat No. C-001-5C). Cells were cultured in 96-well plates for 24 hours with EpiLife media (Cat No. MEPI500CA) supplemented with keratinocytes growth supplement (Cat No. S0015). On Day 2, media was removed and replaced with supplement-depleted medium for 24 hours. On Day 3, media was removed and cells were pre-treated with test materials (≤1 μM) for 2 hours and later co-treated with test materials and TPA (Sigma Aldrich, Cat No. P8139) at 5 ng/mL and incubated for 24 hours at 37° C. and 5% CO2. After incubation, cell media supernatants were harvested and used to measure pro-inflammatory cytokine levels (IL-8) using ELISA kit (BD Biosciences® #555244). Results were represented as percent of inhibition relative to untreated and TPA-only treated cells. IC50 values were determined by non-linear regression analysis using the four-parameter logistic equation.

A further assay relates to IL-10. In words: T-cell receptor (anti-CD3/CD28)-induced IL-10 on PBMCs. Conditions: Homo sapiens, PBMC, anti-CD3/CD28 beads, 24 hours, ELISA, read-out: TCR-PBMCs IL-10 Protein IC50. The class given is cell-based. As for the experimental part:
Cryopreserved human Peripheral Blood Mononuclear cells (PBMCs) from healthy adult donors were obtained from Zen Bio, Inc (Cat No. SER-PBMC-F). Cells were cultured in 96-well plates with lymphocyte media (Cat No. LYMPH-1) and were pre-treated with test materials (≤100 μM) for 2 hours and later co-treated with test materials and anti-CD3/CD28 beads (Thermo-Fisher; Cat No. 11131D) at 1:0.4 PBMC:bead ratio for 24 hours at 37° C. and 5% CO2. After incubation, cell media supernatants were harvested and used to measure cytokine levels (IL-4, IL-5, IL-10) using ELISA kits (BD Biosciences® #555194, #555157; R&D Systems® #DY317). Results were represented as percent of inhibition relative to untreated and anti-CD3/CD28 beads-only treated cells. IC50 values were determined by non-linear regression analysis using the four-parameter logistic equation.
In general terms: An ELISA detects its analyte on a solid surface through an enzyme-linked reagent.

In the next assay the test system is IL-1b. The experiment in a line: P. acnes-induced IL-1b protein on human PBMCs (ELISA). Type of assay: cell-based. Conditions: PBMC, PBMCs + live P. acnes 1:1, test material 30 PM, 24 hours. As for the experimental part: (§2) Cryopreserved human Peripheral Blood Mononuclear cells (PBMCs) from healthy adult donors were obtained from Zen Bio, Inc (Cat No. SER-PBMC-F). Cells were cultured in 12-well plates with lymphocyte media (Cat No. LYMPH-1) and incubated with test materials ([…]) and live P. acnes (ATCC® 6919TM) at 1:1 PBMC: P. acnes bacteria ratio for 24 hours at 37° C. and 5% CO2. After incubation, cell media supernatants were harvested and used to measure pro-inflammatory cytokine levels (IL-8, TNF-α, IL-1b, IL-17) using ELISA kits (BD Biosciences® #557966, #555212, #555244; R&D Systems® #DY317). Total RNA was extracted from cells using the RNAqueous® kit (Ambion®; Cat No. 1912) and cDNA was obtained using the High Capacity RNA-to-cDNA kit (Applied Biosystems®; Cat No. 4387406). Quantitative PCR (qPCR) was performed using the TaqMan® Fast Advanced Master Mix (Applied Biosystems®; Cat No. 4444556) and specific TaqMan®-probes human gene primers CXCL8 (IL-8), IL1B (IL-1b), TNF (TNF-α), IL17A (IL-17A) and GAPDH to calculate the relative gene fold expression change per treatment. Gene expression analysis was performed using the comparative Ct method (also known as the 2-[delta][delta]Ct) approach by comparing the Ct values of P. acnes-only treated cells with the untreated samples and normalized to GAPDH gene expression as endogenous housekeeping gene.

For assay [2], the system named is IL-8. In words: P. acnes-induced IL-8 on human NHEKs. Type of assay: cell-based. Conditions: for IC50: Homo sapiens, NHEK, live P. acnes 10^7 CFU, 24 hours, ELISA, read-out: P. acnes-NHEK IL-8 Protein IC50; for P. acnes-induced IL-8 production: cultured human keratinocytes exposed to P. acnes. As for the experimental part: as §1, with “([…])” for “(≤1 μM)”, “live P. acnes (ATCC® 6919TM)” for “TPA (Sigma Aldrich, Cat No. P8139)”, “10^7 CFU” for “5 ng/mL and incubated”, “kits” for “kit”, “P. acnes-only” for “TPA-only”

The test system of assay [3] is P. acnes (ATCC 6919) biofilms. In words: P. acnes biofilm eradication (MBEC), crystal violet. Conditions: 24 hours, ≥80% eradication vs vehicle. Type of assay: cell-based, Propionibacterium acnes. The protocol: P. acnes (ATCC® 6919™) was cultured as described above. Bacteria biofilms were established by seeding P. acnes cultures in 96-well plates and incubating for 24 hours without agitation. Later, biofilms were incubated with test materials for 24 hours. Remaining biofilms were washed and stained with crystal violet. […] The absorbance was measured at 595 nm in a microplate reader. […] Results from disk diffusion susceptibility testing (Kirby-Bauer Method) after 72 hours incubation were also obtained.

The next assay concerns IL-17. In words: P. acnes-induced IL-17 protein on human PBMCs (ELISA). The class given is cell-based. Conditions: PBMC, PBMCs + live P. acnes 1:1, test material 30 PM, 24 hours. The protocol: as §2
The next assay relates to DEFB4B (hBD2). In words: NHEK antimicrobial peptide gene expression, hBD2. The class given is cell-based, human. Particulars: 10 μM, 24 hours, qPCR, normalized to GAPDH. The protocol:
Normal human epidermal keratinocytes (NHEKs) from neonatal donors were obtained from Thermo-Fisher (Cat No. C-001-5C). Cells were cultured in 6-well plates for 24 hours before treatments with EpiLife media (Cat No. MEPI500CA) supplemented with keratinocytes growth supplement (Cat No. 50015). On Day 2, media was removed and incubated with test materials (10 μM) for 24 hours at 37° C. and 5% CO2. On Day 3, total RNA was extracted from cells using the RNAqueous® kit (Ambion®; Cat No. 1912) and cDNA was obtained using the High Capacity RNA-to-cDNA kit (Applied Biosystems®; Cat No. 4387406). Quantitative PCR (qPCR) was performed using the TaqMan® Fast Advanced Master Mix (Applied Biosystems®; Cat No. 4444556) and specific TaqMan®-probes human gene primers DEFB4B (hBD2), DEFB103 (hBD3), HCAP18 and GAPDH to calculate the relative gene fold expression change per treatment. Gene expression analysis was performed using the comparative Ct method (also known as the 2-[delta][delta]Ct) approach by comparing the Ct values of the treated samples with the untreated samples and normalized to GAPDH gene expression as endogenous housekeeping gene. Results were represented as fold-expression/untreated cells.
(In qPCR the cycle at which signal appears reflects the starting amount.)

By IC50 is commonly meant the concentration that inhibits the measured activity by half. With `C/C(=C\CSC[C@H](NC(=O)COCC(=O)O)C(=O)O)CCCC(C)CCCC(C)CCCC(C)C` (stereo partly shown) [Compound T], the IC50 turned out to be 0.03 µM in the assay on IL-8 [1] and 19 µM in the assay on IL-10.
In general, inhibition refers to the percentage by which the read-out fell short of the control. Turning to `C/C(=C\CSC[C@H](NC(=O)N1CCC[C@H]1C(=O)O)C(=O)O)CCCC(C)CCCC(C)CCCC(C)C` (stereo partly shown) [Compound E], the results for the inhibition at 30 pM with IL-1b and in the assay with IL-17 were 82% and 23%, respectively. The figures for the IC50 with IL-8 [2] and with IL-10 were 0.003 µM and 39 µM, respectively. Also, the “P. acnes-induced IL-8 production” value in the assay with IL-8 [2] is “inhibit IL-8 production”. The MBEC in assay [3] was 12 μg/mL and (21) μM. Also, in the assay on DEFB4B (hBD2), the hBD2 gene expression is reported as 1.1 Fold-expression/untreated cells.
As for `C/C(=C\CSCC(NC(=O)NCC(=O)O)C(=O)O)CCCC(C)CCCC(C)CCCC(C)C` (stereo not shown) [A], the inhibition at 30 pM in the assay on IL-1b came out at 38%; in the assay on IL-17, 32%. Also, the IC50 in the assay with IL-8 [2] is 0.12 µM; with IL-10, 42 µM.
Consider `N#Cc1ccc(Oc2ccc3c(c2)COB3O)cc1` [AN2728, reference compound], for which the half-maximal inhibitory concentration (IC50) in the assay with IL-8 [1] turned out to be 0.02 µM; in the assay on IL-10, 9 µM.
On to `C/C(=C\CSCC(NC(=O)N(CC(=O)O)CC(=O)O)C(=O)O)CCCC(C)CCCC(C)CCCC(C)C` (stereo not shown) [Compound G], for which the inhibition at 30 pM with IL-1b was 91%; in the assay on IL-17 it was 29%. In addition, the IC50 with IL-8 [2] is 0.068 µM. Further, the “P. acnes-induced IL-8 production” value with IL-8 [2] is given as “inhibit IL-8 production”. For the same compound, the MBEC in assay [3] is 7 μg/mL and (11) μM. The hBD2 gene expression with DEFB4B (hBD2) is reported as 2.5 Fold-expression/untreated cells.
For `C/C(=C\CSC[C@H](NC(=O)N(C)CC(=O)O)C(=O)O)CCCC(C)CCCC(C)CCCC(C)C` (stereo partly drawn) [Compound C, (2R)-2-{[(carboxymethyl)(methyl)carbamoyl]amino}-3-{[(2E)-3,7,11,15-tetramethylhexadec-2-en-1-yl]sulfanyl}propanoic acid], the inhibition at 30 pM worked out at 36% with IL-1b and 0% in the assay on IL-17. The IC50 in the assay with IL-8 [1] is 0.02 µM; in the assay on IL-8 [2], 0.04 µM; with IL-10 it was 34 µM. This compound gave an MBEC in assay [3] of 9 µg/mL. For the same compound, the hBD2 gene expression in the assay with DEFB4B (hBD2) is reported as 0.7 Fold-expression/untreated cells.
